Assay [1] is described as follows: Inhibition of glucagon-induced glucose secretion in C57BL/6 mouse primary hepatocytes at 1 uM. The following applies: C57BL/6, Hepatocyte. It counts as functional.
Assay [2] is described as follows: Inhibition of NE-induced lipolysis in adipocytes (unknown origin) assessed as reduction in glycerol release at 1 uM pre-incubated for 30 mins before NE stimulation for 90 mins by glycerol reagent based assay relative to control. It counts as functional, Adipocyte. Conditions: 2 h.
For assay [3], the system named is Mus musculus. In words: In-vivo antagonist activity at beta-adrenergic receptor in fasted and HFD fed mouse assessed as increase in accumulation of liver glycogen at 50 mg/kg. It counts as functional, organism-based.
Assay [4] deals with Beta-2 adrenergic receptor (Homo sapiens, UniProt P07550). In words: Binding affinity to beta2 adrenoceptor (unknown origin).
For assay [5], the system named is Mus musculus. In words: In-vivo antagonist activity at beta-adrenergic receptor in fasted ob/ob mouse assessed as increase in accumulation of liver glycogen at 25 mg/kg. It counts as functional, organism-based.
Assay [6] relates to Mus musculus. In words: In-vivo antagonist activity at beta-adrenergic receptor in fasted ob/ob mouse assessed as inhibition of hormone-sensitive lipase phosphorylation in brown adipose tissue at 25 mg/kg.
Assay [7] has as its system Mus musculus. In words: In-vivo antagonist activity at beta-adrenergic receptor in fasted and HFD fed mouse assessed as inhibition of hormone-sensitive lipase phosphorylation in epididymal white adipose tissue at 50 mg/kg. The class given is functional, organism-based.
For assay [8], the target named is T1, 5-hydroxytryptamine receptor 1A (Homo sapiens, UniProt P08908).
T1 sequence (P08908 whole entry): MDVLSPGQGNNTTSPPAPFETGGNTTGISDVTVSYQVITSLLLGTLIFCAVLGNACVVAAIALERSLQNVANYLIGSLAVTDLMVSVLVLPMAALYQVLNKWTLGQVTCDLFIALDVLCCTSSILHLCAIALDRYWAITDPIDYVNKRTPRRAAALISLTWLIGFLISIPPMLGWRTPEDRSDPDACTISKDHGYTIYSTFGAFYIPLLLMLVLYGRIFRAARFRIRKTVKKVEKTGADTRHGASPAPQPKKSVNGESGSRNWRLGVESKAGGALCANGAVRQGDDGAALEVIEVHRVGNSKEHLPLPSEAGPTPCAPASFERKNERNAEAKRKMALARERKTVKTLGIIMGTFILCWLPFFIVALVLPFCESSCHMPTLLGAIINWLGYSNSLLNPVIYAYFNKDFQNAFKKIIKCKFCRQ
In words: Binding affinity to 5HT1A receptor (unknown origin).

Assay [9] deals with Mus musculus. In words: Suppression of fasting blood glucose in overnight fasted ob/ob mouse 25 mg/kg, ip dosed 3 times and measured 3 hrs after last dose. It counts as functional, organism-based.
Assay [10] has as its system Adipocyte. In words: Inhibition of NE-induced lipolysis in adipocytes (unknown origin) assessed as reduction in glycerol release at 1 to 10000 nM pre-incubated for 30 mins before NE stimulation for 90 mins by glycerol reagent based assay relative to control. The class given is functional, cell-based. Conditions: dose 1-10000 nM, time 120.0 min.

Calls of active or inactive are those of the source. The rule behind the calls is not given here.

Sequence of Beta-2 adrenergic receptor (P07550 whole entry): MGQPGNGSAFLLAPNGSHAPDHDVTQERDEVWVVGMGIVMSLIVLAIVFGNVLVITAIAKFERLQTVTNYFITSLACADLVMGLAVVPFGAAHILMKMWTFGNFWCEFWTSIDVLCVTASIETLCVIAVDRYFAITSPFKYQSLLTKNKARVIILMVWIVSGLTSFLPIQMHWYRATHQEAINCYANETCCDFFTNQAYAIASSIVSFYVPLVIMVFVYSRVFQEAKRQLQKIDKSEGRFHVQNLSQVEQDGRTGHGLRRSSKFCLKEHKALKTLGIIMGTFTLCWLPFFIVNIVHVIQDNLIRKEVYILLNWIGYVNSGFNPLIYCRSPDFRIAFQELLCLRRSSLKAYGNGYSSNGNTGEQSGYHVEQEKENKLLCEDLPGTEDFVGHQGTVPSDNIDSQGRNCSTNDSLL

With `Cc1ccc(CN(CC(O)COc2cccc3[nH]ccc23)C(C)C)cc1` (stereo unspecified), the inhibition at 1 µM in assay [1] came out at 59.5%. Also, the inhibition in assay [2] (read-out: INH) is 51.6%.

For the compound `Cc1ccc(CN(CC(O)CNc2cccc3cc[nH]c23)C(C)(C)C)cc1` (stereo unspecified), in assay [1], the inhibition at 1 µM was determined as 35.1%. Besides, in assay [2] (read-out: INH), the inhibition is 13.2%.

Take `Cc1cccc(CN(CC(O)COc2cccc3[nH]ccc23)C(C)(C)C)c1` (stereo unspecified): the inhibition at 1 µM in [1] came to 62.6%. In addition, in assay [2] (read-out: INH), the inhibition came to 40.4%.

As for `Cc1ccc(CNCC(O)COc2cccc3[nH]ccc23)cc1` (stereo unspecified), in assay [1], the inhibition at 1 µM was found to be 34.5%. For the same compound, in assay [2] (read-out: INH), the inhibition worked out at 40.6%.

For the compound `Cc1ccc(CN(CC(O)COc2ccncc2)C(C)(C)C)cc1` (stereo unspecified), the inhibition at 1 µM in assay [1] worked out at 41.4%. Also, the inhibition in assay [2] (read-out: INH) came to 31.5%.

In the case of `CC(C)(C)NCC(O)COc1cccc2[nH]ccc12` (stereo unspecified), in assay [1], the inhibition at 1 µM was 53%. In assay [2] (read-out: INH), the inhibition turned out to be 73.2%.

Turning to `Cc1ccc(CN(CC(O)COc2ccccc2)C(C)(C)C)cc1` (stereo unspecified), the inhibition at 1 µM in assay [1] worked out at 32.3%. For the same compound, the inhibition in assay [2] (read-out: INH) turned out to be 21.7%.

For `CC(C)(C)N(Cc1ccc(F)cc1)CC(O)COc1cccc2[nH]ccc12` (stereo unspecified), the inhibition at 1 µM in assay [1] is 52.2%. Moreover, the inhibition in assay [2] (read-out: INH) amounted to 55.3%.

On to `Cc1ccc(CN(CC(O)COc2cccc(C)c2)C(C)(C)C)cc1` (stereo unspecified), for which the inhibition at 1 µM in [1] worked out at 31.5%. In [2] (read-out: INH), the inhibition was determined as 13.1%.

With `COC(COc1cccc2[nH]ccc12)CN(CC1CCCC1)C(C)(C)C` (stereo unspecified), in [1], the inhibition at 1 µM was 66.4%. Besides, the inhibition in assay [2] (read-out: INH) is 1%.

Consider `COC(COc1cccc2[nH]ccc12)CN(Cc1ccccc1C)C(C)(C)C` (stereo unspecified), for which the inhibition at 1 µM in assay [1] was 22.7%. In addition, the inhibition in assay [2] (read-out: INH) stood at 14.6%.

`CC(=O)Nc1cccc(OCC(O)CN(Cc2ccc(C)cc2)C(C)(C)C)c1` (stereo unspecified): in assay [1], the inhibition at 1 µM turned out to be 35.9%. In assay [2] (read-out: INH), the inhibition was 12.3%.

Turning to `Cc1ccc(CN(CC(O)COc2ccc3[nH]ccc3c2)C(C)(C)C)cc1` (stereo unspecified), the inhibition at 1 µM in assay [1] was found to be 50.7%. Moreover, the inhibition in assay [2] (read-out: INH) turned out to be 48.5%.

For `Cc1ccc(CN(CC(O)COc2cccc3[nH]ccc23)C(C)(C)C)cc1` (stereo unspecified), the outcome in [3], in assay [5], in [6] and in assay [7] was inactive. Moreover, the Ki in [4] turned out to be 1.3 µM; in assay [8], 2.1 µM. Also, the inhibition at 1 µM in [1] came to 57.7%. For the same compound, the inhibition in assay [2] (read-out: INH) was found to be 25.8%. Moreover, the result in assay [9] was Active.

For `COC(COc1cccc2[nH]ccc12)CN(Cc1ccc(C)cc1)C(C)(C)C` (stereo unspecified), the inhibition at 1 µM in assay [1] was 135%. In addition, the inhibition in assay [2] (read-out: INH) was -8.5%.

With `Cc1ccc(CN(CCCOc2cccc3[nH]ccc23)C(C)(C)C)cc1`, the inhibition at 1 µM in assay [1] was 28.3%. Besides, the inhibition in assay [2] (read-out: INH) amounted to 9.91%.

Regarding `CC(C)(C)N(CC(O)COc1cccc2[nH]ccc12)CC1CCCC1` (stereo unspecified), the inhibition at 1 µM in [1] turned out to be 48.5%. Also, the inhibition in assay [2] (read-out: INH) stood at 51.3%.

With `COc1ccc(CN(CC(O)COc2cccc3[nH]ccc23)C(C)(C)C)cc1` (stereo unspecified), the inhibition at 1 µM in assay [1] came out at 30.1%. Moreover, the inhibition in assay [2] (read-out: INH) is 58.3%.

Regarding `CC(C)NCC(O)COc1cccc2ccccc12` (stereo unspecified) [PROPRANOLOL], in assay [2], the inhibition came to 92.4%.

As to `COC(COc1cccc2c1ccn2C)CN(Cc1ccc(C)cc1)C(C)(C)C` (stereo unspecified), the inhibition at 1 µM in assay [1] stood at 56.8%. In addition, the inhibition in assay [2] (read-out: INH) came to 3.22%.

Regarding `Cc1ccc(CN(CC(O)COc2cccc3[nH]ccc23)C2CC2)cc1` (stereo unspecified), in [1], the inhibition at 1 µM was determined as 37.8%. Further, the inhibition in assay [2] (read-out: INH) worked out at 11.6%.

Regarding `Cc1ccccc1CN(CC(O)COc1cccc2[nH]ccc12)C(C)(C)C` (stereo unspecified), the inhibition at 1 µM in assay [1] was 46%. Besides, in assay [2] (read-out: INH), the inhibition worked out at 35.6%.

Regarding `Cc1ccc(CN(CC(O)COc2cccc3ccccc23)C(C)(C)C)cc1` (stereo unspecified), the inhibition at 1 µM in assay [1] was -2.73%. The inhibition in [2] (read-out: INH) came out at 10.4%.

Consider `CC(C)(C)N(Cc1ccc(C#N)cc1)CC(O)COc1cccc2[nH]ccc12` (stereo unspecified), for which the inhibition at 1 µM in assay [1] stood at 49.3%. Moreover, the inhibition in [2] (read-out: INH) worked out at 53.7%.

For `CN(C)c1ccc(CN(CC(O)COc2cccc3[nH]ccc23)C(C)(C)C)cc1` (stereo unspecified), the inhibition at 1 µM in assay [1] is 35.3%. The inhibition in [2] (read-out: INH) is 65.2%.

In the case of `Cc1ccc(CN(CC(O)COc2cccc3c2ccn3C)C(C)(C)C)cc1` (stereo unspecified), the inhibition at 1 µM in assay [1] was found to be 47.7%. Also, the inhibition in assay [2] (read-out: INH) was 36.7%.

Consider `CC(C)(C)c1ccc(CN(CC(O)COc2cccc3[nH]ccc23)C(C)(C)C)cc1` (stereo unspecified), for which the inhibition result in [10] was “inactive”. For the same compound, the outcome in assay [5] and in assay [6] was inactive. For the same compound, in [1], the inhibition at 1 µM was determined as 47.3%. In addition, in [2] (read-out: INH), the inhibition turned out to be 11.3%. Also, the result in assay [9] was Active.

Turning to `Cc1ccc(CN(CC(O)CNc2ccc3[nH]ccc3c2)C(C)(C)C)cc1` (stereo unspecified), the inhibition at 1 µM in assay [1] worked out at 28.2%. In [2] (read-out: INH), the inhibition is 2.24%.
